Data reported in US11168073B2, “3,3-difluoroallylamines or salts thereof and pharmaceutical compositions comprising the same” (YUHAN CORPORATION, priority 2018, dated 2021).
Structures can show the parent of a compound that is named as a salt. Where two headings read alike, the source gives them in different places.

How the values were obtained:
Format in all cases: biochemical
[1] = target: T1, recombinant human MAO-B (monoamine oxidase-B) (Homo sapiens, UniProt P27338); assay: Activity evaluation on recombinant human MAO-B (Amplex Red/HRP-coupled assay, 1 mM benzylamine substrate); details: read-out: Inhibitory Activity (IC50, nM) MAO-B
T1 construct: purchased Sigma-Aldrich
T1 sequence (P27338 1-520): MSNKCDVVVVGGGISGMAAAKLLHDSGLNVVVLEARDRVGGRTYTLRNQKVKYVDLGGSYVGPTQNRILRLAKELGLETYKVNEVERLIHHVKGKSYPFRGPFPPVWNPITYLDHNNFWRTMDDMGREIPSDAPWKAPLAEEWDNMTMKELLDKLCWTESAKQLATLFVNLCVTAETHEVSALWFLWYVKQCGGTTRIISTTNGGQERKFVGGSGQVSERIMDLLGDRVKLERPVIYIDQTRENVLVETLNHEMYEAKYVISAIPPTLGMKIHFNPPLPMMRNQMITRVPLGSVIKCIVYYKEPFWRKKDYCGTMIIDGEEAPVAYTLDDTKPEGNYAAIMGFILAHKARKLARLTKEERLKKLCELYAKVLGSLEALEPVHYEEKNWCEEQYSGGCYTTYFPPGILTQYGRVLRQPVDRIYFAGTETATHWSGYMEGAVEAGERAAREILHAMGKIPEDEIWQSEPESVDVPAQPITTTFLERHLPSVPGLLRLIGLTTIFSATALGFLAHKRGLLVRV
Summary of the method: (§1)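 Enzyme activity was measured as fluorescence rate (ex 544, em 590 nm) from resorufin formed by HRP-coupled H2O2 oxidation of 200 uM Amplex Red. Compounds were first incubated 30 min at 37 °C with enzyme at pH 7.4; substrates were 0.5 mM tyramine (MAO-A), 1 mM benzylamine (MAO-B) and 1 mM putrescine (DAO).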

[2] = target: T2, recombinant human MAO-A (monoamine oxidase-A) (Homo sapiens, UniProt P21397); assay: Activity evaluation on recombinant human MAO-A (Amplex Red/HRP-coupled assay, 0.5 mM tyramine substrate); details: read-out: Inhibitory Activity (IC50, nM) MAO-A
T2 construct: purchased Sigma-Aldrich
T2 sequence (P21397 1-527): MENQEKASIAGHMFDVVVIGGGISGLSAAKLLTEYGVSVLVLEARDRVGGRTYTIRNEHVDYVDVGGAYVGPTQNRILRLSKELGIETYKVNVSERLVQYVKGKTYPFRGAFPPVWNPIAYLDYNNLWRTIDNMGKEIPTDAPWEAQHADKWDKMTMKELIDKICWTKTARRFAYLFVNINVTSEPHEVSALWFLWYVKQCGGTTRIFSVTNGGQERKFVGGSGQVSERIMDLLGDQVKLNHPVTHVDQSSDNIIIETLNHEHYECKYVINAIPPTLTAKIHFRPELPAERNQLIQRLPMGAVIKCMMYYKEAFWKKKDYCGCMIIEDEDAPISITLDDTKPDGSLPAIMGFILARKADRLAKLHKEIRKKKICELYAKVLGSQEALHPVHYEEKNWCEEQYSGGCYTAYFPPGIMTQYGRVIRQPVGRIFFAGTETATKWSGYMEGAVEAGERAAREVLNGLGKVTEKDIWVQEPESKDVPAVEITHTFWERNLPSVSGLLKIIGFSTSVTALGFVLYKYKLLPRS
Summary of the method: as §1

[3] = target: T3, recombinant human DAO (diamine oxidase) (Homo sapiens, UniProt P19801); assay: Activity evaluation on recombinant human DAO (Amplex Red/HRP-coupled assay, 1 mM putrescine substrate); details: read-out: Inhibitory Activity (IC50, nM) DAO
T3 construct: purchased R&D systems
T3 sequence (P19801 20-751): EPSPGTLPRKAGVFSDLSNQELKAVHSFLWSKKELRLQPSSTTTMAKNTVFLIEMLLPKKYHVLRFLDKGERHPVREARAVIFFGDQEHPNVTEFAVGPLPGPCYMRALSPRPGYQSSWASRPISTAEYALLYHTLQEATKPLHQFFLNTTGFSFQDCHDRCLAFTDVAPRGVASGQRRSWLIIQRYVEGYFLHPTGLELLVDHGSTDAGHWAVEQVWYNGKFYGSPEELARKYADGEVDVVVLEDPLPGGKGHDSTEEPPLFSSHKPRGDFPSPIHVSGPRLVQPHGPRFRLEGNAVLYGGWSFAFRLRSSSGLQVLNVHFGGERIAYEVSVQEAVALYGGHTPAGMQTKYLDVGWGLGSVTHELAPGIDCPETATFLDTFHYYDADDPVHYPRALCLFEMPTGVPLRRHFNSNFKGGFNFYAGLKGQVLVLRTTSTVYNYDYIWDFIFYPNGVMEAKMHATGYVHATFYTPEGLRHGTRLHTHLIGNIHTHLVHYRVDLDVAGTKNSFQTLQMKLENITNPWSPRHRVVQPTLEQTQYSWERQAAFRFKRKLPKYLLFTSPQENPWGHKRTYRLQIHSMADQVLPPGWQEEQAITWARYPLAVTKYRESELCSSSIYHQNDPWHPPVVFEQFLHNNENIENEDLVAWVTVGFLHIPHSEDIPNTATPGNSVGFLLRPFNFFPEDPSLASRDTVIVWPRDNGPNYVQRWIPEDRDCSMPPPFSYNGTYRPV
Summary of the method: as §1

recombinant human VAP-1 = target: T4, recombinant human VAP-1 (Homo sapiens, UniProt Q16853); assay: Activity evaluation on recombinant human VAP-1 (Amplex Red/HRP-coupled hydrogen peroxide assay, benzylamine substrate); details: read-out: Inhibitory Activity (IC50, nM) human VAP-1
T4 construct: purchased R&D systems
T4 sequence (Q16853 1-763): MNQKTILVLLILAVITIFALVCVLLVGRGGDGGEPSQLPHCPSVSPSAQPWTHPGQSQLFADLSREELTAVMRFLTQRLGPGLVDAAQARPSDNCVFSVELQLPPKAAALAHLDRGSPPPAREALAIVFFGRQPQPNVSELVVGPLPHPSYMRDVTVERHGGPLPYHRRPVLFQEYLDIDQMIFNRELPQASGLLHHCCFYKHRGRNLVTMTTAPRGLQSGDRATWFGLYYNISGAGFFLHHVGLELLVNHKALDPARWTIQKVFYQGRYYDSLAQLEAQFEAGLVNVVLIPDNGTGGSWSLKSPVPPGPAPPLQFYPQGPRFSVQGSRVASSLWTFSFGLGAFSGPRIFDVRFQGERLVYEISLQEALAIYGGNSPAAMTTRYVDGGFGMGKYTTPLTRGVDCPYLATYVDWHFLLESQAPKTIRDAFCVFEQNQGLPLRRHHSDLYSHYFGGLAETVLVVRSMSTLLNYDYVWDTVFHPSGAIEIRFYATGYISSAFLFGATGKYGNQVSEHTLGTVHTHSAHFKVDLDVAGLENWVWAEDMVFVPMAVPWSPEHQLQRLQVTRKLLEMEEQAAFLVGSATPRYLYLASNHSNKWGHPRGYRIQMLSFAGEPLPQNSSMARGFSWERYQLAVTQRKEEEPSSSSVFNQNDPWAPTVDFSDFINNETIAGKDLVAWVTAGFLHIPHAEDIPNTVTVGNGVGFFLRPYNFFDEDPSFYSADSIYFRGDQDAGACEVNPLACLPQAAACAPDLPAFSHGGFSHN
Summary of the method: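 Recombinant human VAP-1 in 50 mM sodium phosphate pH 7.4 preincubated 30 min at 37 °C with compound (8-point 1:3 series, <1% DMSO), then 1 mM benzylamine, 200 uM Amplex Red, 1 U/mL HRP added. H2O2-derived resorufin fluorescence (ex 544/em 590) followed 1–2 h; IC50 from four-parameter fit of rate inhibition.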

[4] = recombinant human VAP-1, 30 min preincubation at 37° C., 1 mM benzylamine
[5] = recombinant human VAP-1, benzylamine substrate

SMILES | IC50 ([1]; 1 mM benzylamine) | IC50 ([2]; 0.5 mM tyramine) | IC50 ([3]; 1 mM putrescine) | IC50 (recombinant human VAP-1; [4]) | IC50 ([1]; 1 mM benzylamine substrate) | IC50 ([2]; 0.5 mM tyramine substrate) | IC50 ([3]; 1 mM putrescine substrate) | IC50 (recombinant human VAP-1; [5])
CN(C)c1ccc(-c2ccc(-n3cnn(CC(CN)=C(F)F)c3=O)cc2F)cn1 [Example 27, 2-[2-(aminomethyl)-3,3-difluoro-allyl]-4-[4-[6-(dimethylamino)-3-pyridyl]-3-fluoro-phenyl]-1,2,4-triazol-3-one Trifluoroacetate] | 350 nM | > 100000 nM | 380 nM | 0.4 nM |  |  |  | 
NCC(Cn1ncn(Cc2ccc(-c3cnn(S(=O)(=O)C4CC4)c3)s2)c1=O)=C(F)F [Example 294, 2-[2-(aminomethyl)-3,3-difluoro-allyl]-4-[[5-(1-cyclopropylsulfonylpyrazol-4-yl)-2-thienyl]methyl]-1,2,4-triazol-3-one Trifluoroacetate] |  |  |  |  | > 100000 nM | > 100000 nM | 5380 nM | 2.9 nM
CC(=O)N1CC=C(c2ccc(Cn3cnn(CC(CN)=C(F)F)c3=O)s2)CC1 [Example 125, 2-[2-(aminomethyl)-3,3-difluoro-allyl]-4-[[5-(1-acetyl-3,6-dihydro-2H-pyridin-4-yl)-2-thienyl]methyl]-1,2,4-triazol-3-one Trifluoroacetate] | > 100000 nM | > 100000 nM | > 100000 nM | 2.5 nM |  |  |  | 
NCC(Cn1ncn(Cc2cc(-c3ccc4c(c3)CCC(=O)N4)cs2)c1=O)=C(F)F [Example 192, 6-[5-[[1-[2-(aminomethyl)-3,3-difluoro-allyl]-5-oxo-1,2,4-triazol-4-yl]methyl]-3-thienyl]-3,4-dihydro-1H-quinolin-2-one Trifluoroacetate] |  |  |  |  | 56000 nM | > 100000 nM | 22000 nM | 0.4 nM
CN(C)C(=O)c1cccc(-c2ccc(Cn3cnn(CC(CN)=C(F)F)c3=O)s2)c1 [Example 181, 3-[5-[[1-[2-(aminomethyl)-3,3-difluoro-allyl]-5-oxo-1,2,4-triazol-4-yl]methyl]-2-thienyl]-N,N-dimethyl-benzamide trifluoroacetate] |  |  |  |  | > 100000 nM | > 100000 nM | > 10000 nM | 2.3 nM
CCn1cc(-c2ccc(-n3cnn(CC(CN)=C(F)F)c3=O)c(F)c2)cn1 [Example 37, 2-[2-(aminomethyl)-3,3-difluoro-allyl]-4-[4-(1-ethylpyrazol-4-yl)-2-fluoro-phenyl]-1,2,4-triazol-3-one Trifluoroacetate] | 880 nM | > 100000 nM | 860 nM | 0.5 nM |  |  |  | 

Continued, values first:

IC50 ([1]; 1 mM benzylamine) | IC50 ([2]; 0.5 mM tyramine) | IC50 ([3]; 1 mM putrescine) | IC50 (recombinant human VAP-1; [4]) | IC50 ([1]; 1 mM benzylamine substrate) | IC50 ([2]; 0.5 mM tyramine substrate) | IC50 ([3]; 1 mM putrescine substrate) | IC50 (recombinant human VAP-1; [5]) | SMILES
3800 nM | > 100000 nM | > 100000 nM | 7 nM |  |  |  |  | Cc1cc(-c2ccc3c(c2)OCO3)sc1Cn1cnn(CC(CN)=C(F)F)c1=O [Example 158, 2-[2-(aminomethyl)-3,3-difluoro-allyl]-4-[[5-(1,3-benzodioxol-5-yl)-3-methyl-2-thienyl]methyl]-1,2,4-triazol-3-one Trifluoroacetate]
480 nM | > 100000 nM | 270 nM | 0.4 nM |  |  |  |  | NCC(Cn1ncn(-c2ccnc(-c3ccc4c(c3)OCO4)c2)c1=O)=C(F)F [Example 64, 2-[2-(aminomethyl)-3,3-difluoro-allyl]-4-[2-(1,3-benzodioxol-5-yl)-4-pyridyl]-1,2,4-triazol-3-one Trifluoroacetate]
4200 nM | > 100000 nM | 22000 nM | 0.9 nM |  |  |  |  | CN(C)S(=O)(=O)c1cccc(-c2ccc(Cn3cnn(CC(CN)=C(F)F)c3=O)s2)c1 [Example 103, 3-[5-[[1-[2-(aminomethyl)-3,3-difluoro-allyl]-5-oxo-1,2,4-triazol-4-yl]methyl]-2-thienyl]-N,N-dimethyl-benzenesulfonamide trifluoroacetate]
200 nM | > 100000 nM | 1 nM | 0.5 nM |  |  |  |  | NCC(Cn1ncn(-c2cnc(-c3ccc(C(F)(F)F)nc3)cn2)c1=O)=C(F)F [Example 91, 2-[2-(aminomethyl)-3,3-difluoro-allyl]-4-[5-[6-(trifluoromethyl)-3-pyridyl]pyrazin-2-yl]-1,2,4-triazol-3-one Trifluoroacetate]
3700 nM | > 100000 nM | 13 nM | 0.1 nM |  |  |  |  | CS(=O)(=O)c1ccc(-c2cnc(-n3cnn(CC(CN)=C(F)F)c3=O)c(F)c2)cc1 [Example 82, 2-[2-(aminomethyl)-3,3-difluoro-allyl]-4-[3-fluoro-5-(4-methylsulfonylphenyl)-2-pyridyl]-1,2,4-triazol-3-one Trifluoroacetate]
> 100000 nM | > 100000 nM | > 100000 nM | 0.2 nM |  |  |  |  | NCC(Cn1ncn(Cc2ccc(-c3ccc4c(c3)C(=O)NCC4)s2)c1=O)=C(F)F [Example 132, 7-[5-[[1-[2-(aminomethyl)-3,3-difluoro-allyl]-5-oxo-1,2,4-triazol-4-yl]methyl]-2-thienyl]-3,4-dihydro-2H-isoquinolin-1-one Trifluoroacetate]
